Data set [1] relates to MPS VII primary chondrocytes. The experiment in a line: mTORC1 signaling and autophagy flux in MPS VII primary chondrocytes treated with Torin1. It counts as cell-based, mouse. The settings on record: 1 μM, 24 hours. Here is the method: FIG. 28: Pharmacological inhibition of mTORC1 restores autophagy flux in MPS VII chondrocytes. α-b, biochemical analysis in primary chondrocytes treated with Torin1 (1 μM) for 24 hours (a) and quantification (b). Data shown in (b) are mean+SE of 3 independent experiments.
Primary chondrocytes were isolated from the rib cage of P5 mice (wild-type and MPS VII) and were plated at the density of 10^5 cells/cm^2. After 3 days in culture cells were splitted in 12 wells chamber, synchronized with AA, treated with Torin1 (1 μM) for 24 hours and harvested for biochemical analysis.

Data set [2] has as its system GusbKO RCS cells. The data set is described as follows: UVRAG phosphorylation and AV-Lys fusion in GusbKO RCS chondrocytes. It counts as cell-based, rat. The settings on record: 1 μM, 6h. The method, then:
FIG. 32: mTORC1 inhibits AV-Lys fusion in MPS via UVRAG. A, immunoprecipitation assay testing the increase of UVRAG phosphorylation in RCS GusbKO relative to RCS WT cells. The increase is blunted in the presence of Torin-1 (1 μM; 6h). B, immunoprecipitation assay testing physical interactions between endogenous UVRAG, Rubicon and Beclin-1 in RCS WT and GusbKO RCS chondrocytes after 6h amino acid treatment. Cell lysates were immunoprecipitated with an UVRAG-specific antibody followed by probing with antibodies specific for P-UVRAG (S498), UVRAG, Rubicon or Beclin-1. C, myc-UVRAG was transiently expressed in Gusb^−/− primary chondrocytes. Myc expression, LC3 and P62 were monitored by fluorescence microscope two days post-transfection and after 24h amino acid treatment. Scale bar, 10 μm. Quantitative analysis of P62 and LC3 puncta. Mean value is shown as a horizontal bar. (Student's t-test, *** p<0.0005, n≥20). […] Blot is representative of 3 independent experiments. E, quantification of protein amount normalized to β-actin and relative to RCS WT (ANOVA, P62 P<0.0001, Tukey's post-hoc test, ***p<0.0005, **p<0.005, *p<0.05). […] Scale bar, 10 μm. Quantification of Lamp-1-LC3 co-localization is shown as mean (±s.e.m.) of Mander's Coefficients resulting from three independent experiments (Student's t-test, *p<0.05).

Data set [3] concerns young rats. The conditions noted are these: cited from earlier work.
The subject of data set [4] is kidney transplanted children. The conditions noted are these: small series of kidney transplanted children; cited from earlier work.

Take `CCC(=O)N1CCN(c2ccc(-n3c(=O)ccc4cnc5ccc(-c6cnc7ccccc7c6)cc5c43)cc2C(F)(F)F)CC1` [Torin1]: in data set [1], the “LC3 II and p62 levels” value is “normalization”; the autophagy defects entry was “rescues”; the “phosphorylation of mTORC1 substrates” value is given as “completely suppresses”. In data set [2], the “UVRAG serine 497 (S497) phosphorylation” value is listed as “blunted”.
On to `CO[C@H]1C[C@@H]2CC[C@@H](C)[C@@](O)(O2)C(=O)C(=O)N2CCCC[C@H]2C(=O)O[C@H]([C@H](C)C[C@@H]2CC[C@@H](O)[C@H](OC)C2)CC(=O)[C@H](C)/C=C(\C)[C@@H](O)[C@@H](OC)C(=O)[C@H](C)C[C@H](C)/C=C/C=C/C=C/1C` [rapamycin], for which the longitudinal growth result in data set [3] (rats) is listed as “impairs longitudinal growth”. In addition, the “angiogenesis, proliferation and hypertrophy of growth cartilage chondrocytes” value in data set [3] (young rats) was “disrupts angiogenesis and decreases proliferation and hypertrophy of growth cartilage chondrocytes”. The “growth rate compared with control group not treated” value in data set [4] was “lower growth rate”.
